From patent publication US20230310431A1, “COMPOSITION FOR PREVENTING OR TREATING LIVER FIBROSIS, CONTAINING TRIAZOLE DERIVATIVE AS ACTIVE INGREDIENT” (INDUSTRY-ACADEMIC COOPERATION FOUNDTION, YONSEI UNIVERSITY, priority 2020, published 2023)

What was measured:
[1] = test system: TGF-β; test: Expression of inflammatory factors in liver tissue (real-time PCR): TGF-β; assay type: in vivo, C57BL/6 mice; conditions: high-fat diet group, 50 mg/kg oral, versus control group, FIG. 5B
Description: (§1) Twenty-four 6-week-old C57BL/6 mice were acclimated for 1 week and then divided into two groups. One group (12 mice) was fed a normal diet, and the other group (12 mice) was fed a high-fat diet for 9 weeks. After 9 weeks, each of the normal diet group and the high-fat diet group was subdivided into two groups, and each of vehicle and 50 mg/kg of ML323 was orally administered thereto twice a week for 7 weeks. Normal diet and high-fat diet were continued during oral administration.
(§2) The tissue harvested from each mouse was added to 1 ml of Easy blue (Intron) and then minced using a homogenizer. 200 μl of chloroform was added to and mixed well with the tissue, and the mixture was incubated for 3 minutes and then centrifuged at 13,200 rpm for 15 minutes at 4° C. After centrifugation, only the supernatant was transferred to a fresh tube, and the same amount of isopropyl alcohol was added thereto and mixed well therewith. After incubation for 10 minutes, centrifugation was performed at 13,200 rpm for 10 minutes at 4° C. After removing the supernatant, the RNA pellet was washed with 70% ethanol and centrifuged at 13,200 rpm for 5 minutes at 4° C. […]
(§3) cDNA was synthesized from the extracted RNA using ReverTraAce RT master mix (TOYOBO), and then gene expression changes were measured using a real-time PCR system (ABI).

[2] = test system: CDAA diet mice; test: Immunohistochemical analysis of liver tissue (H&E, F4/80, a-SMA), CDAA diet non-alcoholic fatty liver model; assay type: in vivo, C57BL/6 mice; conditions: CDAA diet group, 50 mg/kg oral, FIG. 7
Description: In addition, ten 6-week-old C57BL/6 mice were acclimated for 1 week and then fed CDAA (choline-deficient L-amino-defined) for 8 weeks to induce non-alcoholic fatty liver. Thereafter, the 10 mice were divided into two groups, to which a vehicle and 50 mg/kg of ML-323 were orally administered, respectively, and then liver tissues were stained with H&E, F4/80, and a-SMA.

[3] = test system: Human hepatic stellate LX-2 cells; test: Cytotoxicity measurement (WST assay); assay type: cell-based; conditions: 48 hours
Description: Human hepatic stellate LX-2 cells were seeded in a 96-well plate with DMEM (Welgene) containing 2% fetal bovine serum (Gibco) and 1% penicillin-streptomycin (Gibco), and cultured in an incubator for 24 hours at 37° C. under 5% CO2. Next, the cells were treated with ML323 at concentrations of 0, 1, 5, 10 and 25 μM. After 48 hours, 10 μl of EZ-Cytox was added to the cell culture medium and reacted for 30 minutes, and the absorbance at 450 nm was measured using a microplate reader.
Cytotoxicity measurement (WST assay)

[4] = test system: COL1A1; test: Expression of hepatic fibrosis inducers in liver tissue (real-time PCR): COL1A1; assay type: in vivo, C57BL/6 mice; conditions: high-fat diet group, 50 mg/kg oral, FIG. 5A
Description: as §1, §2, §3

[5] = test system: fatty liver mouse model; test: Measurement of liver weight change in fatty liver mouse model; assay type: in vivo, C57BL/6 mice; conditions: 50 mg/kg oral twice a week for 7 weeks, FIG. 3
Description: as §1
After the experimental period was over, mice were sacrificed, and liver tissues were harvested and weighed.

[6] = test system: F4/80; test: Expression of inflammatory factors in liver tissue (real-time PCR): F4/80; assay type: in vivo, C57BL/6 mice; conditions: high-fat diet group, 50 mg/kg oral, versus control group, FIG. 5B
Description: as §1, §2, §3

[7] = test system: CCL2; test: Expression of inflammatory factors in liver tissue (real-time PCR): CCL2; assay type: in vivo, C57BL/6 mice; conditions: high-fat diet group, 50 mg/kg oral, versus control group, FIG. 5B
Description: as §1, §2, §3

[8] = test system: fatty liver mouse model; test: Immunohistochemical analysis of liver tissue (Sirius red, a-SMA), fatty liver mouse model; assay type: in vivo, C57BL/6 mice; conditions: 50 mg/kg oral, FIG. 6
Description: as §1
The liver tissue harvested from each mouse was fixed in a 10% formalin solution, and a paraffin block and a slide were prepared using each liver tissue that had been fixed. The degree of fibrosis in liver tissue was measured using Sirius red solution staining and a-SMA immunostaining.

[9] = test system: fatty liver mouse model; test: Measurement of liver function indicators (AST, ALT) in blood; assay type: in vivo, C57BL/6 mice; conditions: high-fat diet group, 50 mg/kg oral twice a week for 7 weeks, versus vehicle-administered control group, FIG. 4
Description: as §1
After the experimental period was over, blood was collected from each mouse, and after 30 minutes, the supernatant (plasma) was separated from the blood by centrifugation at 2,000 rpm for 15 minutes. The separated plasma was analyzed by Seoul Clinical Laboratories (SCL) to measure the levels of AST and ALT, which are indicators of liver function.

[10] = test system: COL1A1; test: Measurement of cell fibrosis: COL1A1 mRNA in TGF-β-activated LX-2 cells; assay type: cell-based, Human; conditions: TGF-β 2.5 ng/ml, ML323 1, 10, 25 μM, 24 hours, versus cells not treated with ML323, FIG. 2
Description: Human hepatic stellate LX-2 cells were seeded in a 6-well plate with DMEM (Welgene) containing 2% fetal bovine serum (Gibco) and 1% penicillin-streptomycin (Gibco), and cultured in an incubator for 24 hours at 37° C. under 5% CO2. Thereafter, the medium was replaced with serum-free DMEM, and the cells were starved for 24 hours. Next, the cells were activated by treatment with TGF-β at a concentration of 2.5 ng/ml, and at the same time, the cells were treated with ML323 at concentrations of 0, 1, 10 and 25 μM. After 24 hours, the cells were harvested and used for gene expression analysis.
as §3

In the case of Cc1cnc(-c2ccccc2C(C)C)nc1NCc1ccc(-n2ccnn2)cc1 [ML323, N-(4-(1H-1,2,3-triazol-1-yl)benzyl)-2-(24 sopropylphenyl)-5-methylpyrimidin-4-amine], the “mRNA expression level of TGF-β in liver tissue” value [1] is reported as “significantly decreased”, the “inflammation and hepatic fibrosis in liver tissue (H&E staining, f4/80 and a-SMA immunostaining)” value [2] is reported as “significantly decreased” and the “viability of LX-2 cells versus untreated cells” value ([3]; 0, 1, 5, 10 and 25 μM, FIG. 1) is reported as “no significant difference in viability”. For the same compound, the cytotoxicity ([3]; all treatment concentrations (up to 25 μM)) was “did not exhibit cytotoxicity”, the “mRNA expression level of the COL1A1 gene in liver tissue” value [4] was “greatly decreased” and the liver weight ([5]; high-fat diet group) was “decreased”. The “accumulation of fat in liver tissue” value ([5]; high-fat diet group, versus control group) was “significantly decreased”, the “liver weight or size” value ([5]; normal diet group, versus control group) was “no significant difference in liver weight or size” and the “mRNA expression level of F4/80 in liver tissue” value [6] was “significantly decreased”. The “mRNA expression level of CCL2 in liver tissue” value [7] was “significantly decreased”, the “hepatic fibrosis in liver tissue (Sirius red staining and a-SMA immunostaining)” value [8] was “significantly decreased” and the “decrease of ALT level in the blood” value [9] was 70%. For the same compound, the “decrease of AST level in the blood” value [9] was 40% and the “mRNA expression of COL1A1” value [10] was “significantly lower”.
